Read-outs that look alike come from different tables or passages of the source.
Columns and labels:
[1] = test system: KsIAA16 (R and S alleles) with KsTIR1 and/or KsAFB6; test: Y2H assay, summary statements over the protein combinations tested; assay type: binding, Kochia scoparia; conditions: at the concentrations tested
Description: (§1) Yeast two-hybrid (Y2H) studies were conducted using the Matchmaker® Gold Yeast Two-Hybrid System: vectors, transformation protocols and yeast strains (Clonetech Laboratories, Inc.). The coding sequences for the KsIAA16R (SEQ ID NO: 220), KsIAA16S (SEQ ID NO: 218), KsTIR1 (SEQ ID NO: 285), KsAFB6 (SEQ ID NO: 287), KsAFB2 (SEQ ID NO: 289), and KsAFB5 (SEQ ID NO: 291) were PCR amplified using primers specified in Table 2.
(§2) PCR products were gel purified and recombined into NdeI/NotI digested pGADT7 or pGBKT7 vectors using the In-Fusion® cloning system (Clonetech Laboratories, Inc.). The pGBKT7 vector contained the GAL4 DNA binding domain, rendering the fusions as the “bait,” whereas the “prey” were the fusions containing the pGADT7 vector, which contained the GAL4 activation domain. All vectors were first sequence verified and then the listed vector combinations were co-transformed into the yeast strain, Y2HGold. […] Transformants were plated on SC-Trp-Leu plates to select for those containing both plasmids. Four healthy colonies were selected at random and resuspended into 300 μL of 0.1% agar in water. Five μL of this dilution was replica spotted onto each plate. Plates were incubated at 30° C. for 3 days prior to evaluation of colony growth.
(§3) This method enabled the study of the binding/interaction of the Kochia R and S alleles of KsIAA16 with each of the Kochia TIR/AFB homologs (KsTIR1 (SEQ ID NO: 285), and KsAFB6 (SEQ ID NO: 287)) in the absence or presence of 100 μM or 500 μM exogenous concentrations of IAA, NAA, dicamba, and 2,4-D, picloram, triclopyr, quinclorac, fluroxypyr or phenylacetic acid (PAA).

[2] = test system: seedlings of the R and S Kochia biotypes; test: Root elongation response of Kochia seedlings; assay type: in vivo, Kochia scoparia; conditions: R biotype seedlings; FIG. 5
Description: The root elongation response of seedlings from the R and S Kochia biotypes was tested to determine if the R biotype response was consistent with the Y2H findings. For root elongation studies, plant nutrient media was used, with 0.5% sucrose. Seeds were surface sterilized in 30% bleach with 0.1% Triton-X100 for 10 to 30 minutes, then rinsed twice in sterile water and resuspended in 0.1% agar for plating. Root lengths were measured to the nearest millimeter, and the average root length of 12 individuals was calculated unless otherwise noted.

[3] = test system: KsIAA16R in combination with KsAFB6; test: Yeast two-hybrid (Y2H) assay: KsIAA16R binding with KsAFB6 in presence of auxin; design: species or system Kochia scoparia; conditions: for Interaction between KsIAA16R and KsAFB6 in the presence of the auxin: at the concentrations tested
Description: as §1, §2, §3

[4] = test system: KsIAA16S in combination with KsAFB6; test: Yeast two-hybrid (Y2H) assay: KsIAA16S binding with KsAFB6 in presence of auxin; design: species or system Kochia scoparia; conditions: allele KsIAA16S; auxin 500 μM; yeast colony growth
Description: as §1
(§4) PCR products were gel purified and recombined into NdeI/NotI digested pGADT7 or pGBKT7 vectors using the In-Fusion® cloning system (Clonetech Laboratories, Inc.). The pGBKT7 vector contained the GAL4 DNA binding domain, rendering the fusions as the “bait,” whereas the “prey” were the fusions containing the pGADT7 vector, which contained the GAL4 activation domain. All vectors were first sequence verified and then the listed vector combinations were co-transformed into the yeast strain, Y2HGold. […] Transformants were plated on SC-Trp-Leu plates to select for those containing both plasmids. Four healthy colonies were selected at random and resuspended into 300 μL of 0.1% agar in water. Five μL of this dilution was replica spotted onto each plate. Plates were incubated at 30° C. for 3 days prior to evaluation of colony growth. […]

[5] = test system: transgenic Arabidopsis carrying AtIAA16P:KsIAA16 constructs; test: Root elongation inhibition assay of T2 transgenic Arabidopsis on plant nutrient plus IAA or dicamba; assay type: in vivo, Arabidopsis thaliana
From the text: To determine if the presence of the KsIAA16R allele alone was necessary and sufficient to confer dicamba resistance, several transgene expression constructs were generated for study of KsIAA16 in Arabidopsis. Agrobacterium tumefaciens was used to introduce the binary vectors in the plants using the floral dip method (Clough and Bent, 1998). Vectors contained either the ethanol inducible alcA promoter elements (Salter et al., 1998), the constitutive CaMV35S promoter, or the native Arabidopsis IAA16 promoter (AtIAA16P) driving either KsIAA16R (SEQ ID NO: 220) or KsIAA16S (SEQ ID NO: 218). GUS reporter constructs contained a 2.5 kb genomic DNA fragment from directly upstream of KsIAA16, which is expected to contain most of the promoter elements as well as the 5′UTR, driving uidA. All constructs contained either a Spectinomycin resistance gene (SPEC) or a glufosinate resistance gene (BAR) in the T-DNA region to serve as the selectable marker. For all constructs, T1 seed was harvested, surface sterilized, and plated on the appropriate selective media to identify independent T1 transformants. Single seed decent and segregation on selective media was used to estimate transgene insertion number and identify homozygous lines. For induction of the P-Alc promoter, ethanol was added to a final concentration of 0.01% just before plates were poured, and plates were used immediately. All plates were grown in a Percival growth chamber (Percival Scientific, Inc.) at 22° C. with 16 hour day/8 hour night light cycle and a light intensity of […]. Relative humidity was maintained at 50%. GUS assays were performed according to standard protocols. Briefly, a 20 mg/mL X-Gluc (GoldBio, St. Louis, Mo.) stock in dimethylformamide was diluted into 50 mM phosphate buffer, pH 7.0, to a final concentration of 1 mg/mL. This solution was added to plant tissues, and samples were placed under vacuum for 5 minutes to ensure penetration of the solution into the tissues. Samples were covered in foil to prevent light entry and place at 37° C. for 24 hours to allow color development. Staining solution was removed and chlorophyll was cleared by incubating samples in 50% ethanol for several hours.

[6] = test system: KsIAA16R in combination with KsTIR1; test: Yeast two-hybrid (Y2H) assay: KsIAA16R binding with KsTIR1 in presence of auxin; design: species or system Kochia scoparia; conditions: compared with KsIAA16S; concentration not given
Description: as §1, §4

[7] = test system: KsIAA16S in combination with KsTIR1; test: Yeast two-hybrid (Y2H) assay: KsIAA16S binding with KsTIR1 in presence of auxin; design: species or system Kochia scoparia; conditions: allele KsIAA16S, yeast colony growth
Description: as §1, §4

R and S Kochia biotypes = test: Greenhouse spray test for cross-resistance of Kochia R-biotype; assay type: in vivo, Kochia scoparia; conditions: all treatments, track sprayer, 10 to 15 cm tall plants
From the text: To elucidate whether the Kochia R-biotype is cross resistant to 2,4-D or fluroxypyr, greenhouse grown 10 to 15 cm tall Kochia plants were sprayed with either Dicamba at 0,140, 280, 560, 2240, 4480, 6720, 8960, or 17920 g a.e.ha^−1; 2,4-D at 0, 70, 140, 280, 560, 1120, 2240, 4480, 6720, 8960 g a.e.ha^−1 or fluroxypyr at 0, 17.5, 35, 70, 140, 280, 420, 560, 1120, 2240 g a.e.ha^−1 with a track sprayer. […]

[8] = test system: dicamba resistant Kochia biotype
[9] = test system: Kochia F2 progeny (S/S, R/S, R/R); conditions: spray 1120 g/ha
Description: To determine whether the KsIAA16R allele co-segregates with the dicamba resistance phenotype, spray tests were performed on Kochia populations comprising S and R plants. Crosses between S and R individuals were performed, utilizing the S biotype as the female and the R biotype as the male in order to identify individuals resulting from cross pollination. […] Several verified heterozygous F1 plants were selected for F2 seed production. In addition, a subset of S/S and R/S individuals from the F1 generation was subjected to dicamba sprays to ensure that the marker could effectively identify the R allele.
To determine whether the KsIAA16R allele co-segregates with the dicamba resistance phenotype, 720 F2 progeny from verified heterozygous F1 parental plants were sampled and genotyped, and tolerance to a dicamba spray concentration double the typical dicamba field use rate (1120 g/ha) was determined. Plant identity was maintained throughout the experiment, and genotype and percent visible dicamba injury was determined for each of the F2 progeny.

O=C(O)Cc1cccc2ccccc12 [NAA, 2-(1-naphthyl) acetic acid]
Facilitation of interaction of KsIAA16R with KsTIR1 and/or KsAFB6 [1]: can facilitate some interaction | Root elongation inhibition of the R Kochia biotype [2]: remained sensitive | Ability of KsIAA16R to interact with KsAFB6 in the presence of the auxin ([3]; only the higher concentration could facilitate binding): reduced ability to interact

O=C(O)c1c(Cl)ccc2cc(Cl)cnc12 [Quinclorac, 3,7-dichloro-8-quinolinecarboxylic acid]
Ability to bind in combination with KsAFB6 [4]: observed to interact | Facilitation of interaction of KsIAA16R with KsTIR1 and/or KsAFB6 [1]: cannot | Interaction between KsIAA16R and KsAFB6 in the presence of the auxin [3]: not observed

COc1c(Cl)ccc(Cl)c1C(=O)O [Dicamba, 3,6-dichloro-2-methoxybenzoic acid]
Resistance in root elongation inhibition assay ([5]; four independent transformant lines carrying AtIAA16P:KsIAA16R): showed resistance | Root Length (in mm) of T2 transgenics on plant nutrient plus auxin ([5]; line AtIAA16P:KsIAA16R_T2-1, +5 μM auxin): 12.42 ± 1.27 mm | Root Length (in mm) of T2 transgenics on plant nutrient plus auxin ([5]; line AtIAA16P:KsIAA16R_T2-2, +5 μM auxin): 15.5 ± 1.45 mm | Root Length (in mm) of T2 transgenics on plant nutrient plus auxin ([5]; line AtIAA16P:KsIAA16R_T2-3, +5 μM auxin): 15.58 ± 1.57 mm | Root Length (in mm) of T2 transgenics on plant nutrient plus auxin ([5]; line AtIAA16P:KsIAA16R_T2-4, +5 μM auxin): 17.5 ± 2.12 mm | Root Length (in mm) of T2 transgenics on plant nutrient plus auxin ([5]; line AtIAA16P:KsIAA16S_T2-1, +5 μM auxin): 13.50 ± 1.01 mm | Root Length (in mm) of T2 transgenics on plant nutrient plus auxin ([5]; line AtIAA16P:KsIAA16S_T2-2, +5 μM auxin): 11.42 ± 1.28 mm | Root Length (in mm) of T2 transgenics on plant nutrient plus auxin ([5]; line AtIAA16P:KsIAA16S_T2-3, +5 μM auxin): 14.17 ± 0.9 mm | Root Length (in mm) of T2 transgenics on plant nutrient plus auxin ([5]; line AtIAA16P:KsIAA16S_T2-4, +5 μM auxin): 10.67 ± 0.72 mm | Root Length (in mm) on plant nutrient plus auxin ([5]; non-transgenic WT, +5 μM auxin): 9.08 ± 0.66 mm | Resistance in root elongation inhibition assay ([5]; only one of the four lines carrying AtIAA16P:KsIAA16S): very slight resistance | Facilitation of interaction of KsIAA16R with KsTIR1 and/or KsAFB6 [1]: cannot | Ability of KsIAA16R to interact with KsTIR1 in the presence of the auxin [6]: decreased ability to interact | Root elongation inhibition of the R Kochia biotype [2]: resistant | Ability to bind in combination with KsTIR1 ([7]; auxin [100 mM] (text: 100 μM)): exhibited interaction | Ability to bind in combination with KsTIR1 ([7]; auxin [500 mM] (text: 500 μM)): exhibited interaction | Visible injury at 14 days after treatment (DAT) (R and S Kochia biotypes): observed | fold increase in dicamba resistance [8]: ~30 fold | mean injury rating ([9]; R/R individuals): 24.6% | mean injury rating ([9]; R/S individuals): 35.9% | mean injury rating ([9]; S/S individuals): 82.3% | average injury per genotype (percent visible dicamba injury) ([9]; genotype R/R): about 20% | average injury per genotype (percent visible dicamba injury) ([9]; genotype R/S): about 40% | average injury per genotype (percent visible dicamba injury) ([9]; genotype S/S): about 80%

Nc1c(Cl)c(Cl)nc(C(=O)O)c1Cl [Picloram, 4-amino-3,5,6-trichloro-2-pyridinecarboxylic acid]
Ability to bind in combination with KsAFB6 [4]: observed to interact | Facilitation of interaction of KsIAA16R with KsTIR1 and/or KsAFB6 [1]: cannot | Interaction between KsIAA16R and KsAFB6 in the presence of the auxin [3]: not observed

Reference: patent US11352637B2, “Methods and compositions for herbicide tolerance in plants” (MONSANTO TECHNOLOGY LLC, priority 2017, dated 2022)
